Assay results: PubChem BioAssay AID248 (DTP/NCI, 2004)
Where “and” joins values, the source holds several entries; their conditions need not be identical. Equal values may be shown once. Toxic doses and inconclusive results are not listed. Cut-off read from the data, not from the text of the source: active = T/C of 150% or more; inactive = T/C below 125%.

System: L1210 leukemia ip in BDF1 mice, survival T/C
Experiment: NCI In Vivo Anticancer Drug Screen. Data for tumor model L1210 Leukemia (intraperitoneal) in B6D2F1 (BDF1) mice
Conditions: endpoint: mean survival time, higher = longer survival
Outline: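 In this screen, tumor-bearing mice given compound are compared to those given vehicle, and their survival values are reported as a treated-to-control quotient.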

[1] = dose: 1.0 mg/kg/injection, schedule: Q01DX001 (ip), vehicle: saline
[2] = dose: 2.0 mg/kg/injection, schedule: Q01DX001 (ip), vehicle: saline
[3] = dose: 100.0 mg/kg/injection, schedule: Q01DX009 (ip), vehicle: saline with Tween-80
[4] = dose: 100.0 mg/kg/injection, schedule: Q04DX002 (ip), vehicle: saline with Tween-80
[5] = dose: 100.0 mg/kg/injection, schedule: Q04DX003 (ip), vehicle: saline with Tween-80
[6] = dose: 200.0 mg/kg/injection, schedule: Q01DX009 (ip), vehicle: saline with Tween-80
[7] = dose: 200.0 mg/kg/injection, schedule: Q04DX002 (ip), vehicle: saline with Tween-80
[8] = dose: 200.0 mg/kg/injection, schedule: Q04DX003 (ip), vehicle: saline with Tween-80
[9] = dose: 400.0 mg/kg/injection, schedule: Q01DX009 (ip), vehicle: saline with Tween-80
[10] = dose: 400.0 mg/kg/injection, schedule: Q04DX002 (ip), vehicle: saline with Tween-80
[11] = dose: 400.0 mg/kg/injection, schedule: Q04DX003 (ip), vehicle: saline with Tween-80
[12] = dose: 100.0 mg/kg/injection, schedule: Q04DX002 (ip), vehicle: Klucel (hydroxypropylcellulose) (HPC)
[13] = dose: 200.0 mg/kg/injection, schedule: Q04DX002 (ip), vehicle: Klucel (hydroxypropylcellulose) (HPC)
[14] = dose: 400.0 mg/kg/injection, schedule: Q04DX002 (ip), vehicle: Klucel (hydroxypropylcellulose) (HPC)
[15] = dose: 100.0 mg/kg/injection, schedule: Q01DX001 (ip), vehicle: carboxymethylcellulose (CMC)
[16] = dose: 200.0 mg/kg/injection, schedule: Q01DX001 (ip), vehicle: carboxymethylcellulose (CMC)
[17] = dose: 400.0 mg/kg/injection, schedule: Q01DX001 (ip), vehicle: carboxymethylcellulose (CMC)
[18] = dose: 100.0 mg/kg/injection, schedule: Q01DX009 (ip), vehicle: Klucel (hydroxypropylcellulose) (HPC)
[19] = dose: 200.0 mg/kg/injection, schedule: Q01DX009 (ip), vehicle: Klucel (hydroxypropylcellulose) (HPC)
[20] = dose: 100.0 mg/kg/injection, schedule: Q04DX003 (ip), vehicle: Klucel (hydroxypropylcellulose) (HPC)
[21] = dose: 200.0 mg/kg/injection, schedule: Q04DX003 (ip), vehicle: Klucel (hydroxypropylcellulose) (HPC)
[22] = dose: 400.0 mg/kg/injection, schedule: Q04DX003 (ip), vehicle: Klucel (hydroxypropylcellulose) (HPC)

Measured: T/C

CCC1(Cl)C(=O)OCc2c1cc1n(c2=O)Cc2cc3ccccc3nc2-1 (stereo not drawn)
inactive: [1] 97 % of control | dose: 1.0 mg/kg/injection, schedule: Q01DX Z (ip), vehicle: saline 100 % of control | [2] 101 % of control | dose: 2.0 mg/kg/injection, schedule: Q01DX Z (ip), vehicle: saline 95 % of control | dose: 4.0 mg/kg/injection, schedule: Q01DX001 (ip), vehicle: saline 100 % of control | dose: 4.0 mg/kg/injection, schedule: Q01DX Z (ip), vehicle: saline 97 % of control | dose: 6.0 mg/kg/injection, schedule: Q01DX001 (ip), vehicle: saline 95 % of control | dose: 6.0 mg/kg/injection, schedule: Q01DX Z (ip), vehicle: saline 103 % of control

CCOC(=O)c1nc(SCc2ccccc2)n(Cc2ccccc2)c1C(=O)OCC
inactive: dose: 100.0 mg/kg/injection, schedule: Q01DX001 (ip), vehicle: saline with Tween-80 109 % of control | [3] 104 % of control and 107 % of control | [4] 102 % of control and 108 % of control | [5] 91 % of control | dose: 200.0 mg/kg/injection, schedule: Q01DX001 (ip), vehicle: saline with Tween-80 101 % of control | [6] 102 % of control and 111 % of control | [7] 101 % of control and 87 % of control | [8] 107 % of control | dose: 400.0 mg/kg/injection, schedule: Q01DX001 (ip), vehicle: saline with Tween-80 95 % of control | [9] 101 % of control and 102 % of control | [10] 97 % of control and 104 % of control | [11] 101 % of control

CC(=O)N(C)c1ccc(S(=O)(=O)Cl)cc1
inactive: [3] 101 % of control | [6] 95 % of control

O=C1C2C3CCC(C4OCCO4)(O3)C2C(=O)N1Cc1ccccc1 (stereo not drawn)
inactive: [12] 107 % of control | [13] 103 % of control | [14] 96 % of control

Cc1cc(C(=O)O)c2c([nH]1)c(C)cc1nc3ccccc3c12
inactive: dose: 50.0 mg/kg/injection, schedule: Q01DX001 (ip), vehicle: carboxymethylcellulose (CMC) 101 % of control | [15] 101 % of control | [16] 108 % of control | [17] 95 % of control

CCOP(=O)(CI)Oc1ccc([N+](=O)[O-])cc1 (stereo not drawn)
inactive: dose: 0.5 mg/kg/injection, schedule: Q01DX001 (ip), vehicle: saline 100 % of control | [1] 102 % of control | [2] 100 % of control

Cc1cc(=O)[nH]c2ccc(Cc3ccc(N)cc3)cc12
inactive: [15] 95 % of control | [16] 96 % of control | [17] 98 % of control

Cc1c(Cl)cccc1NC(=O)c1ccccc1Cl
inactive: [18] 94 % of control | dose: 100.0 mg/kg/injection, schedule: Q04DX003 (ip), vehicle: saline 122 % of control | [19] 94 % of control | dose: 200.0 mg/kg/injection, schedule: Q04DX003 (ip), vehicle: saline 108 % of control | dose: 400.0 mg/kg/injection, schedule: Q01DX009 (ip), vehicle: Klucel (hydroxypropylcellulose) (HPC) 95 % of control | dose: 400.0 mg/kg/injection, schedule: Q04DX003 (ip), vehicle: saline 108 % of control

O=P(NC12CC3CC(CC(C3)C1)C2)(c1ccccc1)N1CC1 (stereo not drawn)
inactive: [20] 86 % of control | [21] 88 % of control | [22] 89 % of control

C=CCSc1nccnc1C
inactive: dose: 50.0 mg/kg/injection, schedule: Q01DX009 (ip), vehicle: Klucel (hydroxypropylcellulose) (HPC) 100 % of control | [18] 103 % of control | [19] 110 % of control

Nc1nc(SCC(=O)c2ccc(F)cc2)sc1C(=O)c1ccc(F)cc1
inactive: [12] 100 % of control | [13] 112 % of control | [14] 100 % of control

CCC(=O)C(CC)c1cccc(OC)c1 (stereo not drawn)
inactive: [3] 100 % of control | [5] 100 % of control | [6] 94 % of control | [8] 97 % of control | [9] 114 % of control | [11] 97 % of control

NC(=O)c1cc(Cl)nc(Cl)n1
inactive: dose: 25.0 mg/kg/injection, schedule: Q01DX Z (ip), vehicle: methylcellulose (MC) 98 % of control | dose: 50.0 mg/kg/injection, schedule: Q01DX Z (ip), vehicle: methylcellulose (MC) 96 % of control

CC1=CC(=O)C2=C(C)C[C@H](O)[C@@H]3[C@H](OC(=O)[C@H]3C)[C@@H]12
inactive: dose: 100.0 mg/kg/injection, schedule: Q04DX002 (ip), vehicle: saline 100 % of control | dose: 200.0 mg/kg/injection, schedule: Q04DX002 (ip), vehicle: saline 89 % of control | dose: 400.0 mg/kg/injection, schedule: Q04DX002 (ip), vehicle: saline 95 % of control

CN(C)CCN1C(=O)CC(c2ccccc2)Sc2ccccc21 (stereo not drawn)
inactive: dose: 3.12 mg/kg/injection, schedule: Q01DX009 (ip), vehicle: saline 98 % of control | dose: 6.25 mg/kg/injection, schedule: Q01DX009 (ip), vehicle: saline 118 % of control | dose: 12.5 mg/kg/injection, schedule: Q01DX009 (ip), vehicle: saline 101 % of control | dose: 25.0 mg/kg/injection, schedule: Q01DX009 (ip), vehicle: saline 107 % of control | dose: 25.0 mg/kg/injection, schedule: Q04DX003 (ip), vehicle: saline 102 % of control | dose: 50.0 mg/kg/injection, schedule: Q01DX009 (ip), vehicle: saline 113 % of control | dose: 50.0 mg/kg/injection, schedule: Q04DX003 (ip), vehicle: saline 113 % of control

CC1CCC(OC(C[N+](=O)[O-])C(Cl)(Cl)Cl)CC1 (stereo not drawn)
inactive: [3] 93 % of control | [5] 106 % of control | [6] 91 % of control | [8] 101 % of control | [9] 90 % of control | [11] 104 % of control

c1ccc(COCc2ccc(C3N(c4ccccc4)CCN3c3ccccc3)o2)cc1
inactive: [4] 96 % of control | [7] 96 % of control | [10] 104 % of control

S=c1nc[nH]c2c1[nH]c(=S)n2CCc1cnc[nH]1
inactive: dose: 24.0 mg/kg/injection, schedule: Q01DX009 (ip), vehicle: steriod suspending solution 98 % of control | dose: 39.0 mg/kg/injection, schedule: Q01DX009 (ip), vehicle: steriod suspending solution 100 % of control | dose: 65.0 mg/kg/injection, schedule: Q01DX009 (ip), vehicle: steriod suspending solution 102 % of control | dose: 108.0 mg/kg/injection, schedule: Q01DX009 (ip), vehicle: steriod suspending solution 88 % of control | dose: 400.0 mg/kg/injection, schedule: Q01DX001 (ip), vehicle: steriod suspending solution 94 % of control

CS/C(N)=N\S(=O)(=O)c1ccc(NC(C)=O)cc1
inactive: [5] 93 % of control | [8] 90 % of control | [11] 96 % of control

N#Cc1ccc(OCCCCCOc2ccc([N+](=O)[O-])cc2)cc1
inactive: dose: 75.0 mg/kg/injection, schedule: Q01DX009 (ip), vehicle: Klucel (hydroxypropylcellulose) (HPC) 101 % of control | dose: 150.0 mg/kg/injection, schedule: Q01DX009 (ip), vehicle: Klucel (hydroxypropylcellulose) (HPC) 97 % of control | dose: 300.0 mg/kg/injection, schedule: Q01DX009 (ip), vehicle: Klucel (hydroxypropylcellulose) (HPC) 100 % of control

N#CCCCCn1ccc(=O)[nH]c1=O
inactive: dose: 45.0 mg/kg/injection, schedule: Q01DX009 (ip), vehicle: Klucel (hydroxypropylcellulose) (HPC) 92 % of control | dose: 90.0 mg/kg/injection, schedule: Q01DX009 (ip), vehicle: Klucel (hydroxypropylcellulose) (HPC) 104 % of control | [20] 100 % of control | dose: 180.0 mg/kg/injection, schedule: Q01DX009 (ip), vehicle: Klucel (hydroxypropylcellulose) (HPC) 98 % of control | [21] 102 % of control | dose: 360.0 mg/kg/injection, schedule: Q01DX009 (ip), vehicle: Klucel (hydroxypropylcellulose) (HPC) 93 % of control | [22] 96 % of control

CSc1ccc(NC(=O)Nc2ccc(NC(C)=O)cc2)cc1
inactive: [3] 97 % of control | [6] 98 % of control | [9] 97 % of control
